Data as given in PMC12284513, “Unique structural features define the decarboxylation activity of a CYP152 fatty acid decarboxylase from Lacicoccus alkaliphilus” (The Journal of Biological Chemistry, 2025).
“And” between values parts separate entries of the source, which are not always exact repeats. Identical values can stand only once. Like-named read-outs stand apart in the source and are kept apart here.

Legend:
OleTJE L176I = assay: Fatty acid bioconversion with H2O2 as co-substrate (alkene by GC-MS, hydroxy products by HPLC-MS); type: biochemical, Jeotgalicoccus sp. 8456; settings: 200 μM substrate, 400 μM H2O2
Description: A reaction was typically quenched by adding 2-fold reaction volume of ethyl acetate which contained 30 μM of tetradecane as an internal standard. The reaction mixtures were vortexed for 1 min and then centrifuged at 12,000 rpm, 4 °C for 10 min to separate an organic and an aqueous phase. The organic phase was injected into an Agilent gas chromatography system (GC-MS) (Agilent 7890B equipped with Agilent 5977B MSD) equipped with a HP5-MS column (30 m × 0.25 mm × […]) (Agilent), and helium was used as a carrier gas. The oven conditions for C10FA and 1-nonene (C9 alkene) were ramped up from 60 to 240 °C with a rate of 19 ° C min^−1 and held at 240 °C for 1 min. […] For C18FA and 1-heptadecene (C17 alkene), the oven was ramped up from 60 to 250 °C with a rate of 22 °C min^−1 and hold at 250 °C for 4 min. For C20FA and 1-nonadecene (C19 alkene), the oven was ramped up from 100 to 250 °C with a rate of 23 °C min^−1 and held at 250 °C for 6 min. The response of target compounds was normalized with signals of the internal standard. The concentration of each compound was calculated based on a standard calibration curve.
For analyzing hydroxylated products of fatty acids, the reactions were quenched by adding an equal volume of acetonitrile, centrifuged, and filtrated. The analytes (10 μl) were injected into a liquid chromatography coupled with diode array and single quadrupole mass spectroscopy detection (LC-DAD/MS) (Agilent 1290 Infinity II LC System equipped with DAD, Single Quadrupole Mass Spectrometers system). A Zorbax eclipse plus C18 column (5 μm, 4.6 × 250 mm) (Agilent Technology) was used for separation. The mobile phase system A was water with 0.1% (v/v) formic acid, and system B was acetonitrile with 0.1% (v/v) formic acid.
All fatty acids were prepared in absolute EtOH at 20 mM as stock solutions. The reaction was carried out in 50 mM NaH2PO4 buffer with 300 mM NaCl, pH 7.5, with 2.5 or 10% (v/v) of EtOH, 200 μM of a substrate, and 400 μM of H2O2. The reactions were performed at 25 °C for 1 h, and then the alkene product was measured using GC-MS after the reactions were quenched and extracted with two-fold volume of ethyl acetate.
(§1) Site-directed mutagenesis of I178L of OleTLA and […] of OleTJE was done with overlaping PCR that used OleTLA or OleTJE plasmids as templates (Table S4). The PCR products were treated with DpnI in cut smart buffer at 37 °C for 16 h, transformed into E. coli XL−1 blue competent cells and grown at 37 °C on LB agar containing 50 μg/ml ampicillin. The plasmids of selected colonies were extracted for sequence verification. The plasmid containing the correct sequence was transformed into E. coli BL21 (DE3) for enzyme expression. The expression and purification methods of variants were the same as those of wild-type OleTLA and OleTJE.

OleTJE [1] = target: T1, OleTJE (Jeotgalicoccus sp. ATCC 8456, UniProt E9NSU2); set-up: method as in PMID 28276499; settings: C14FA decarboxylation; cited from earlier work
T1 sequence (E9NSU2 1-422): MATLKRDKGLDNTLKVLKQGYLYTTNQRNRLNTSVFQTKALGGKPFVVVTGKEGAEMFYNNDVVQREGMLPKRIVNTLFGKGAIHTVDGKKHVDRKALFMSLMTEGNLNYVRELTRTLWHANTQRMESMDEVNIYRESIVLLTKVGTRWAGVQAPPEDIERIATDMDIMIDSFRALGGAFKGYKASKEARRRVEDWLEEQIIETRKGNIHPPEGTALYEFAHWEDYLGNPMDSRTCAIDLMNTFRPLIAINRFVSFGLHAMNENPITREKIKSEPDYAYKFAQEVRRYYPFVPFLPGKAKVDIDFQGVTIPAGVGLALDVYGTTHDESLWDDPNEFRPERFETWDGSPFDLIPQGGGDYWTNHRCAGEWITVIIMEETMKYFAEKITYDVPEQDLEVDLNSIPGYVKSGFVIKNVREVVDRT

OleTLA [2] = target: T2, OleTLA (Lacicoccus alkaliphilus, UniProt A0A1M7CBV6); assay: Steady-state kinetics of C16FA decarboxylation with H2O2, C15 alkene by GC-MS; type: biochemical; settings: for kcat / Km: 400 μM H2O2, pH 7.5, 25 °C
T2 sequence (A0A1M7CBV6 1-424): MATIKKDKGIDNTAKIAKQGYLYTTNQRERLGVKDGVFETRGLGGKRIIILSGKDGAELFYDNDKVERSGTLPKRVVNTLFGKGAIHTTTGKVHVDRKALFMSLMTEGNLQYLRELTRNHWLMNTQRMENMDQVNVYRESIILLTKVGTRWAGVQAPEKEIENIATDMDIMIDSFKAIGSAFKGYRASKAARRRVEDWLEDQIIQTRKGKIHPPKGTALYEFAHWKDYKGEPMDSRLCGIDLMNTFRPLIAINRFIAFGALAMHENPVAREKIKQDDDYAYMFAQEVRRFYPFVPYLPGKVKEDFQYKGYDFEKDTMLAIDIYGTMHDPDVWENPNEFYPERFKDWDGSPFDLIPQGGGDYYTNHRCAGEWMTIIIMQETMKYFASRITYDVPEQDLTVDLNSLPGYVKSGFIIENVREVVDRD
Description: (§2) Under specific times between 0.1 to 2 min, the reaction samples were taken and quenched by adding an equal volume of ethyl acetate. The ethyl acetate layer would contain the C15 alkene product, which was measured using GC-MS. Values of initial rates were plotted against substrate concentrations to analyze for Km and Vmax values using the Michaelis–Menten equation by GraphPad Prism software version 10.

OleTJE [3] = target: T1, OleTJE; assay: as above; type: biochemical, Jeotgalicoccus sp. 8456; settings: for Km / kcat: 400 μM H2O2, pH 7.5, 25 °C
Description: as §2

OleTLA I178L = OleTLA I178L (Lacicoccus alkaliphilus, UniProt A0A1M7CBV6, I178L); assay: as above; type: biochemical; settings: 10% (v/v) EtOH, 400 μM H2O2, pH 7.5, 25 °C
Description: as §2, §1

OleTLA [4] = target: T2, OleTLA; assay: Substrate binding by isothermal titration calorimetry (ITC); settings: pH 7.5, 25 °C
Description: (§3) The enzyme solution was filled into a syringe while the C16FA solution was filled into the ITC cell. The reactions were constantly stirred at 750 rpm while controlling the temperature at 25 °C during titration. A total of 19 enzyme injections were added into the substrate solution. […] For the other 18 injections, 2 μl of the enzyme solution was added with […] to ensure that the conditions are under equilibrium. The data were processed and analyzed using the Microcal PEAQ-ITC analysis software to calculate the Kd value based on a single-site binding model.

OleTJE [5] = target: T1, OleTJE; assay: as above; set-up: species or system Jeotgalicoccus sp. 8456; settings: pH 7.5, 25 °C
Description: as §3, with “The” for “The enzyme solution was filled into a syringe while the C16FA solution was filled into the ITC cell. The”

OleTLA [6] = target: T2, OleTLA; assay: Equilibrium substrate binding by heme spectral change (absorbance at 390 nm); settings: read-out: Kd from absorbance changes at 390 nm

CCCCCCCCCCCCCC(=O)O [C14FA, tetradecanoic acid]
Decarboxylation activity of OleTJE L176I compared to that of OleTJE wild type (OleTJE L176I): less than 1%
kcat (OleTJE [1]): 1.18 s⁻¹

CCCCCCCCCCCCCCCC(=O)O [C16FA, hexadecanoic acid]
Enhancement of kcat in 10% (v/v) EtOH compared to 2.5% (v/v) EtOH (OleTLA [2]): around 4.3 fold
kcat (OleTLA [2]; 2.5% (v/v) EtOH): 0.343 ± 0.0083 s⁻¹
Km (OleTLA [2]; 2.5% (v/v) EtOH, read-out: KM): 5.4 ± 0.6 µM
Km (OleTLA [2]; 10% (v/v) EtOH): 16.7 ± 0.6 µM
kcat (OleTLA [2]; 10% (v/v) EtOH): 1.47 ± 0.0267 s⁻¹
Enhancement of kcat in 10% (v/v) EtOH compared to 2.5% (v/v) EtOH (OleTJE [3]): ~1.4 fold
Km (OleTJE [3]; 2.5% (v/v) EtOH): 8.6 ± 1.4 µM
kcat (OleTJE [3]; 2.5% (v/v) EtOH): 0.647 ± 0.015 s⁻¹
Km (OleTJE [3]; 10% (v/v) EtOH): 9.6 ± 0.6 µM
kcat (OleTJE [3]; 10% (v/v) EtOH): 0.918 ± 0.0033 s⁻¹
Km (OleTLA I178L): 25 ± 0.6 µM
kcat (OleTLA I178L): 1.6 ± 0.0417 s⁻¹
Kd (OleTLA [4]; 2.5% (v/v) EtOH): 0.95 ± 0.14 µM
TΔS (OleTLA [4]; 2.5% (v/v) EtOH): 159.4 ± 11.1 kJ/mol
ΔG (OleTLA [4]; 2.5% (v/v) EtOH): -34.4 ± 0.33 kJ/mol
ΔH (OleTLA [4]; 2.5% (v/v) EtOH): 125.4 kJ/mol and 125.4 ± 12.3 kJ/mol
Kd (OleTLA [4]; 10% (v/v) EtOH): 1.26 ± 0.23 µM
TΔS (OleTLA [4]; 10% (v/v) EtOH): 246.6 ± 8.37 kJ/mol
ΔG (OleTLA [4]; 10% (v/v) EtOH): -33.7 ± 0.46 kJ/mol
ΔH (OleTLA [4]; 10% (v/v) EtOH): 212.7 kJ/mol and 212.7 ± 8.79 kJ/mol
Kd (OleTJE [5]; 2.5% (v/v) EtOH): 1.93 ± 0.16 µM
TΔS (OleTJE [5]; 2.5% (v/v) EtOH): 67.49 ± 9 kJ/mol
ΔG (OleTJE [5]; 2.5% (v/v) EtOH): -32.6 ± 0.21 kJ/mol
Kd (OleTJE [5]; 10% (v/v) EtOH): 0.44 ± 0.01 µM
TΔS (OleTJE [5]; 10% (v/v) EtOH): -21.5 ± 11.5 kJ/mol
ΔG (OleTJE [5]; 10% (v/v) EtOH): -36.3 ± 0.042 kJ/mol
ΔH (OleTJE [5]; 10% (v/v) EtOH): -51 ± 21.4 kJ/mol
Kd (OleTLA [6]; 2.5% (v/v) EtOH): 0.32 µM
Kd (OleTLA [6]; 10% (v/v) EtOH): 0.53 µM
Kd (OleTLA [6]; buffer (0% (v/v) EtOH)): 0.37 µM
Decarboxylation activity of OleTJE L176I compared to that of OleTJE wild type (OleTJE L176I): less than 5%
